Measurements published in publication PMC6151990, “Effects of P-Glycoprotein on the Transport of DL0410, a Potential Multifunctional Anti-Alzheimer Agent” (Molecules : A Journal of Synthetic Chemistry and Natural …, 2017).
Structures can show the parent of a compound that is named as a salt.

Key:
[1] = test system: MDCK cells; assay: CCK-8 cytotoxicity assay, MDCK; assay type: cell-based, Canine; details: 100 µM, 12 h
Description: (§1) The cytotoxicity of DL0410 was determined by the CCK-8 assay. Caco-2 Cells, at a density of 1 × 10^5 cells/mL, were seeded in 96-well plates for culture. The seeding density of MDCK and MDCK-MDR1cells were 0.8 × 10^5 cells/mL. Two days after seeding, increasing concentrations (0.1, 1, 10, 100 µM) of DL0410 were added for treatment, and cytotoxicity was measured after 12 h by the CCK-8 assay.

[2] = Transcellular transport across Caco-2 cell monolayer; assay type: in vitro ADME; details: human
Description: (§2) Caco-2, MDCK and MDCK-MDR1cells were cultured at seeding densities of 1 × 10^5, 2 × 10^5, 2 × 10^5 cells/cm^2, respectively, onto polycarbonate membrane transwell inserts in 12-well plates. Prior to performing the transport studies, we determined the values of Trans Epithelial Electric Resistance (TEER) and Papp values of fluorescein to ensure the integrity of the monolayers [16]. After seeding for 18 and 21 days, the cultural medium of transwell chambers was removed carefully and washed twice with HBSS (pH 7.4, 37 °C), and then pre-incubated for 30 min at 37 °C. The transwell chambers were incubated for 20 min at 37 °C. […] After incubation for 2 h, the liquor of each side was collected for determination.
(§3) To analyze DL0410 in HBSS buffer, 15 µL of IS working solution (phenacetin, 1 µg/mL) and 150 µL sample were mixed with 1000 µL ethyl acetate to extract the analytes, and then vortexed for 5 min. After centrifuging at 13,000 rpm for 10 min, the supernatant was added into another tube carefully and evaporated to dryness under a gentle flow of nitrogen gas. The residue was reconstituted in 60 µL acetonitrile–water (20:80, v/v, containing 0.5% formic acid). After centrifugation, the supernatant was used for analysis. The analytical column was Agilent Zorbax SD-C18 (100 mm × 2.1 mm, 3.5 µm; Agilent Technologies, Santa Clara, CA, USA). The mobile phase was made up of acetonitrile–water (0.5% formic acid) (20:80, v/v). Injection volume, flow rate, and column temperature were 20 µL, a 0.3 mL/min, and 35 °C, respectively. The mass spectrometer was operated in the positive scan mode. The conditions of ESI source were as follows: drying gas flow was set at 10 L/min, nebulizer pressure was 35.0 psig, capillary voltage was 3000 V, and drying gas temperature was 350 °C. The ESI was performed using nitrogen to assist nebulization.
(§4) The Papp values (cm/s) were computed according to the following equation [16], Papp=V/C0×1/S×dC/dt (V: volume of medium in the receiver chamber (mL); C0: initial concentration in the donor chamber (µM/mL), S: the surface area of monolayer (cm^2); dC/dt: variance rate in the receptor chamber of concentration with time (µM/mL/s)) The ER was calculated by the Papp value from BL to AP divided by Papp value from AP to BL. In MDCK-MDR1 and MDCK cell models, the NER was measured by comparing the ER values as follows [16]. (1) ER=Papp(B−A)/Papp(A−B) (2) NER=ERMDCK−MDR1/ERMDCK

[3] = target: human P-gp membranes (Homo sapiens, UniProt P08183); assay: P-gp ATPase activity (Pgp-Glo assay); details: P-gp ATPase stimulation
human P-gp membranes, sequence (P08183 whole entry): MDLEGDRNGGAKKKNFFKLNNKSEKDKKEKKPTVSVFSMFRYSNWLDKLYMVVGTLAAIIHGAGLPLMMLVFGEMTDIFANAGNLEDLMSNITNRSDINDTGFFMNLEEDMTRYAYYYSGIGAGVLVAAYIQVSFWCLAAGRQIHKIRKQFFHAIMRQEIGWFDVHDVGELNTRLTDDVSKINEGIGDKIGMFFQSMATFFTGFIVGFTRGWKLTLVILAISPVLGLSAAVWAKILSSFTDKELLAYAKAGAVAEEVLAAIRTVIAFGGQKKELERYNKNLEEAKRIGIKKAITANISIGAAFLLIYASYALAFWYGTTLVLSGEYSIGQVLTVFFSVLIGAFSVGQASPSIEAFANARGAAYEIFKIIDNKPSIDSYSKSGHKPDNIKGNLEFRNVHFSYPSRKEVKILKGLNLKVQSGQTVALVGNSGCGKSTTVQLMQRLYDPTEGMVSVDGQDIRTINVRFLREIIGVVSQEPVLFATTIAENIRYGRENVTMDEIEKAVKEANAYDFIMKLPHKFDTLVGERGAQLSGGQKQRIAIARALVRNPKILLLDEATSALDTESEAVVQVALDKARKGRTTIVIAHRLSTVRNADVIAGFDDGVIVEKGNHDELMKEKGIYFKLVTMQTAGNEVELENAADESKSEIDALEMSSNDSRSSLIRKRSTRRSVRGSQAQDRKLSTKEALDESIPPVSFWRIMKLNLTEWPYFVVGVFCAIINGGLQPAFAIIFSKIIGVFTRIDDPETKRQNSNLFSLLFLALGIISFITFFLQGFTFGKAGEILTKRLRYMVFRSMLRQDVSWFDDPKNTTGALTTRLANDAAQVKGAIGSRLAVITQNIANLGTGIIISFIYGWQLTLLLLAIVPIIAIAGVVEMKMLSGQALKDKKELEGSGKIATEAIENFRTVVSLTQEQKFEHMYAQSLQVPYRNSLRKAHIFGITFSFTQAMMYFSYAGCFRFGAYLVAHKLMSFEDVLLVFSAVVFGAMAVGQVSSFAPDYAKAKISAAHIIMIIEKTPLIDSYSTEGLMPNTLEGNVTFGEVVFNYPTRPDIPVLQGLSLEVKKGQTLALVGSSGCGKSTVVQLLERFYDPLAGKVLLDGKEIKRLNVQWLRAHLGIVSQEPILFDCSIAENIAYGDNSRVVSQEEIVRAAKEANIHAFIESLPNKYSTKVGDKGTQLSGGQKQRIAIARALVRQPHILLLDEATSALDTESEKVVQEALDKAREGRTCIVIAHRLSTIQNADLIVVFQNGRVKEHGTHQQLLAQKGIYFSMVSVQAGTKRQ

[4] = target: T1, P-gp (Homo sapiens, UniProt P08183); assay: Effect on Rho123 transport (BL to AP) in MDCK-MDR1 cells; assay type: cell-based; details: MDCK-MDR1, Rho123 10 µM, DL0410 50 µM, 2 h
T1 construct: expressed in transfected cells; host or cells: MDCK-MDR1 (canine kidney MDCK cells transfected with the human MDR1 gene)
T1 sequence (P08183 whole entry): as above

[5] = test system: MDCK-MDR1 cells; assay: CCK-8 cytotoxicity assay, MDCK-MDR1; assay type: cell-based, Canine; details: MDCK-MDR1, 100 µM, 12 h
Description: as §1

[6] = test system: Caco-2 cells; assay: CCK-8 cytotoxicity assay, Caco-2; assay type: cell-based, human; details: Caco-2, 100 µM, 12 h
Description: as §1

[7] = test system: MDCK-MDR1 cell monolayer; assay: Transcellular transport across MDCK-MDR1 cell monolayer; assay type: in vitro ADME, Canine; details: ER MDCK-MDR1 / ER MDCK
Description: as §2, §3, §4

[8] = test system: P-gp; assay: as above; assay type: in vitro ADME, Canine; details: dog, pH 7.4
Description: as §2, §3, §4

[9] = test system: P-gp (MDR1); assay: as above; assay type: in vitro ADME, Canine; details: dog, pH 7.4; MDCK-MDR1, DL0410 10 μM; read-out: ER
Description: as §2, §3, §4

[10] = Transcellular transport across MDCK cell monolayer; assay type: in vitro ADME, Canine; details: dog
Description: as §2, §3, §4

[11] = test system: Caco-2 cell monolayer; assay: Transcellular transport across Caco-2 cell monolayer; assay type: in vitro ADME; details: human, Caco-2
Description: as §2, §3, §4

[12] = Transcellular transport across MDCK-MDR1 cell monolayer; assay type: in vitro ADME, Canine; details: dog; MDCK-MDR1 monolayer, integrity control; read-out: permeability value
Description: as §2, §3, §4

Compound: O=C(CCN1CCCCC1)c1ccc(-c2ccc(C(=O)CCN3CCCCC3)cc2)cc1 [DL0410, 1,1’-([1,1’-Biphenyl]-4,4’-diyl)bis(3-(piperidin-1-yl)propan-1-one)dihydrochloride]
- cytotoxicity [1]: no significant cytotoxic effect
- Papp A→B at 2 h, 10 µM ([2]; pH 7.4, Caco-2, DL0410 10 μM): 0.725 ± 0.184 ×10⁻⁶ cm/s
- Papp B→A at 2 h, 10 µM ([2]; pH 7.4, Caco-2, DL0410 10 μM): 3.27 ± 0.251 ×10⁻⁶ cm/s
- efflux ratio at 2 h, 10 µM ([2]; pH 7.4, Caco-2, DL0410 10 μM, read-out: ER): 4.52
- Papp A→B at 2 h, 30 µM ([2]; pH 7.4, Caco-2, DL0410 30 μM): 0.841 ± 0.098 ×10⁻⁶ cm/s
- Papp B→A at 2 h, 30 µM ([2]; pH 7.4, Caco-2, DL0410 30 μM): 3.45 ± 0.619 ×10⁻⁶ cm/s
- efflux ratio at 2 h, 30 µM ([2]; pH 7.4, Caco-2, DL0410 30 μM, read-out: ER): 4.1
- Papp A→B at 2 h, 100 µM ([2]; pH 7.4, Caco-2, DL0410 100 μM): 1.28 ± 0.017 ×10⁻⁶ cm/s
- Papp B→A at 2 h, 100 µM ([2]; pH 7.4, Caco-2, DL0410 100 μM): 2.38 ± 0.138 ×10⁻⁶ cm/s
- efflux ratio at 2 h, 100 µM ([2]; pH 7.4, Caco-2, DL0410 100 μM, read-out: ER): 1.86
- Papp at 2 h ([2]; pH 7.4, Caco-2, summary value in text (A→B), read-out: apparent permeability (Papp)): ~1 ×10⁻⁶ cm/s
- concentration at which the activity of ATPase was saturated [3]: 150 µM
- effect on Rho123 transport from BL to AP [4]: reduced Rho123 efflux
- cytotoxicity [5]: no significant cytotoxic effect
- cytotoxicity [6]: no significant cytotoxic effect
- NER ([7]; DL0410 10 μM): 10.588
- NER ([7]; DL0410 30 μM): 8.770
- NER ([7]; DL0410 30 μM + verapamil (50 μM)): 0.311
- NER ([7]; DL0410 100 μM): 5.556
- Papp A→B at 2 h, 10 µM ([8]; MDCK-MDR1, DL0410 10 μM): 0.297 ± 0.111 ×10⁻⁶ cm/s
- Papp B→A at 2 h, 10 µM ([8]; MDCK-MDR1, DL0410 10 μM): 4.43 ± 0.376 ×10⁻⁶ cm/s
- Papp A→B at 2 h, 30 µM ([8]; MDCK-MDR1, DL0410 30 μM): 0.31 ± 0.021 ×10⁻⁶ cm/s
- Papp B→A at 2 h, 30 µM ([8]; MDCK-MDR1, DL0410 30 μM): 3.21 ± 0.061 ×10⁻⁶ cm/s
- efflux ratio at 2 h, 30 µM ([8]; MDCK-MDR1, DL0410 30 μM, read-out: ER): 10.3
- Papp A→B at 2 h, 100 µM ([8]; MDCK-MDR1, DL0410 100 μM): 0.321 ± 0.039 ×10⁻⁶ cm/s
- Papp B→A at 2 h, 100 µM ([8]; MDCK-MDR1, DL0410 100 μM): 1.73 ± 0.105 ×10⁻⁶ cm/s
- efflux ratio at 2 h, 100 µM ([8]; MDCK-MDR1, DL0410 100 μM, read-out: ER): 5.41
- efflux ratio at 2 h, 10 µM [9]: 14.9
- efflux ratio at 2 h ([10]; pH 7.4, MDCK cells, summary value in text, read-out: ER): ~1
- Papp A→B at 2 h, 10 µM ([10]; pH 7.4, MDCK, DL0410 10 μM): 0.502 ± 0.103 ×10⁻⁶ cm/s
- Papp B→A at 2 h, 10 µM ([10]; pH 7.4, MDCK, DL0410 10 μM): 0.708 ± 0.114 ×10⁻⁶ cm/s
- efflux ratio at 2 h, 10 µM ([10]; pH 7.4, MDCK, DL0410 10 μM, read-out: ER): 1.41
- Papp A→B at 2 h, 30 µM ([10]; pH 7.4, MDCK, DL0410 30 μM): 0.74 ± 0.023 ×10⁻⁶ cm/s
- Papp B→A at 2 h, 30 µM ([10]; pH 7.4, MDCK, DL0410 30 μM): 0.871 ± 0.068 ×10⁻⁶ cm/s
- efflux ratio at 2 h, 30 µM ([10]; pH 7.4, MDCK, DL0410 30 μM, read-out: ER): 1.18
- Papp A→B at 2 h, 100 µM ([10]; pH 7.4, MDCK, DL0410 100 μM): 0.95 ± 0.116 ×10⁻⁶ cm/s
- Papp B→A at 2 h, 100 µM ([10]; pH 7.4, MDCK, DL0410 100 μM): 0.924 ± 0.005 ×10⁻⁶ cm/s
- efflux ratio at 2 h, 100 µM ([10]; pH 7.4, MDCK, DL0410 100 μM, read-out: ER): 0.973

Compound: COc1ccc(CCN(C)CCCC(C#N)(c2ccc(OC)c(OC)c2)C(C)C)cc1OC (stereo not shown) [Verapamil, reference compound]
- concentration at which the activity of ATPase was saturated [3]: 100 µM

Compound: O=C1OC2(c3ccc(O)cc3Oc3cc(O)ccc32)c2ccccc21 [fluorescein, reference compound]
- Papp ([2]; Caco-2 monolayer, integrity control, read-out: apparent permeability (Papp)): 1.09 ×10⁻⁶ cm/s
- penetration rate [11]: 0.10%
- Papp [12]: 0.571 ×10⁻⁶ cm/s
- Papp ([10]; MDCK monolayer, integrity control, read-out: permeability value): 0.702 ×10⁻⁶ cm/s
